Measured values from US20190233884A1 (University of Southern California, priority 2016, published 2019).

Tested on: patients with refractory metastatic colorectal cancer (mCRC)
Experiment: PFS, OS and disease control in the training (evaluation) cohort of refractory mCRC patients receiving TAS-102 (n=52, Japan), by baseline characteristics, SNP genotype and toxicity
Type: in vivo, human
Experimental: All patients underwent the treatment in salvage-line setting. […]
(§1) Genomic DNA was extracted from peripheral whole blood in patients of all cohorts using the QIAmp Kit (Qiagen, Valencia, Calif., USA) according to the manufacturer's protocol (www.qiagen.com). The candidate SNPs were genotyped using PCR-based direct DNA sequence analysis by ABI 3100A Capillary Genetic Analyzer and Sequencing Scanner v1.0 (Applied Biosystems). Amplification of extracted DNA was carried out using both forward and reverse primers for each gene polymorphism as shown in Table 1. […] The investigators analyzing SNPs were blinded to the clinical data of the study patients.
The primary endpoint in this study was progression-free survival (PFS), and the secondary endpoints were overall survival (OS) and disease control rate (DCR). PFS was calculated from the date of starting treatment to the first observation of disease progression or death from any cause. If a patient had no disease progression or death, PFS was censored at the date of last follow up. OS was calculated from the date of starting treatment until the date of death from any cause or the date of the last follow-up, at which point OS was censored. The disease control rate (DCR) was defined as the proportion of patients who achieved a stable disease (SD) or […] according to RECISTv1.1. Chi-square test was used to examine the difference in baseline patient characteristics among the three cohorts. Allelic distribution of all SNPs by ethnicity for deviation from Hardy-Weinberg equilibrium and the allelic frequencies of SNPs were tested using the Chi-square tests with one degree of freedom. The associations between candidate SNPs and disease control, and toxicities were examined using contingency tables and Fisher's exact test. The associations of SNPs with PFS and OS were analysed using Kaplan-Meier curves and the log-rank test. Because the true mode of inheritance of candidate SNPs was not established yet, a codominant or dominant genetic model if appropriate was considered.
All patients underwent the treatment in salvage-line setting. […] In all patients, adverse events were graded according to the Common Terminology Criteria for Adverse Events, version 4.0. […]
as §1, with “tested” for “genotyped”, “Biosystems).” for “Biosystems). Amplification of extracted DNA was carried out using both forward and reverse primers for each gene polymorphism as shown in Table 1.”, “data.” for “data of the study patients.”
The primary endpoint in this study was progression-free survival (PFS), and the secondary endpoints were overall survival (OS) and disease control rate (DCR).

[1] = training cohort, OCT2 rs316019 C/C
[2] = training cohort, hENT1 + OCT2/MATE1 classification: Fair
[3] = training cohort, hENT1rs750370_19 Excellent
[4] = training cohort, hENT1rs750370_19 Faire
[5] = training cohort, hENT1rs750370_19 Faire vs Poor
[6] = training cohort, hENT1rs750370_19 Good
[7] = training cohort, hENT1rs750370_19 Good and Excellent combined
[8] = training cohort, hENT1rs750370_19 Good and Excellent combined vs Poor
[9] = training cohort, hENT1rs750370_19 Poor
[10] = training cohort, hENT1 rs760370, multivariate adjusted for liver metastases and adjuvant history
[11] = training cohort, hENT1 rs760370 A/A
[12] = training cohort, hENT1 rs760370 A/G
[13] = training cohort, hENT1 rs760370 A/G and G/G combined
[14] = training cohort, hENT1 rs760370 A/G and G/G combined vs A/A
[15] = training cohort, hENT1 rs760370 G/G
[16] = training cohort, hENT1 rs760370 any G allele
[17] = training cohort, hENT1 rs760370 any G vs A/A, univariate
[18] = training cohort, hENT1 rs9394992 C/C
[19] = training cohort, hENT1 rs9394992 C/T
[20] = training cohort, hENT1 rs9394992 C/T and T/T combined
[21] = training cohort, hENT1 rs9394992 C/T and T/T combined vs C/C
[22] = training cohort, hENT1 rs9394992 T/T
[23] = training cohort, hENT1 rs9394992 any T allele
[24] = training cohort, hENT1 rs9394992 any T vs C/C, univariate
[25] = training/evaluation cohort, grade 3≤ neutropenia vs less than grade 3, univariate
[26] = training/evaluation cohort, neutropenia less than grade 3 (n=32)
[27] = training/evaluation cohort, patients with grade 3≤ neutropenia (n=20)
[28] = whole training (evaluation) cohort

For Trifluridine/tipiracil [TAS-102], the “Progression-free Survival HR (95% CI) univariate” value (training cohort, OCT2 rs316019 C/A and A/A combined vs C/C) was 0.74 (0.35, 1.52), the “Disease Control Rate PD” value [1] was 24 (73%) and the “Disease Control Rate SD” value [1] was 9 (27%). For the same substance, the “Overall Survival Median, months (95% CI)” value [1] was 8.1 (5.7, 12.4) months, the “Progression-free Survival Median, months (95% CI)” value [1] was 2.5 (2.1, 3.4) months and the “Progression-free Survival HR (95% CI) multivariate” value (training cohort, adjusted for liver metastasis and adjuvant history, CNT1 rs2290272 A/A genotype) was 1.01 (0.38, 2.68). For the same substance, the “Progression-free Survival HR (95% CI) multivariate” value (training cohort, adjusted for liver metastasis and adjuvant history, CNT1 rs2290272 G/A genotype) was 0.64 (0.29, 1.39), the “Progression-free Survival HR (95% CI) multivariate” value (training cohort, adjusted for liver metastasis and adjuvant history, CNT1 rs2290272 any A allele) was 0.71 (0.33, 1.50) and the “Progression-free Survival HR (95% CI) multivariate” value (training cohort, adjusted for liver metastasis and adjuvant history, MATE2 rs16960360 A/C or C/C genotype) was 1.07 (0.55, 2.07). The “Progression-free Survival HR (95% CI) multivariate” value (training cohort, adjusted for liver metastasis and adjuvant history, OCT2 rs316000 A/G or G/G genotype) was 1.11 (0.48, 2.56), the “Progression-free Survival HR (95% CI) multivariate” value (training cohort, adjusted for liver metastasis and adjuvant history, TK1 rs1065769 C/T or T/T genotype) was 1.13 (0.58, 2.18) and the OS (training cohort, grade 2< neutropenia (so in the source)) was 8.3 months. For the same substance, the “HR for OS” value (training cohort, grade 2< vs grade 2> neutropenia) was 0.41, the OS (training cohort, grade 2> neutropenia (so in the source)) was 4.4 months and the OS [2] was 7.2. The PFS [2] was 2.1 months, the PFS (training cohort, hENT1 + OCT2/MATE1 classification: Good or Excellent) was 3.5 months and the OS (training cohort, hENT1 + OCT2/MATE1 classification: Good or Excellent (third value as printed)) was 3.4. For the same substance, the OS (training cohort, hENT1 + OCT2/MATE1 classification: Poor (first value)) was 8.7, the “Disease Control Rate PD” value [3] was 10 (50%) and the “Disease Control Rate SD” value [3] was 10 (50%). For the same substance, the “Overall Survival Median, months (95% CI)” value [4] was 7.2 (2.7, 14.8) months, the “Progression-free Survival Median, months (95% CI)” value [4] was 2.1 (1.6, 4.1) months and the “Overall Survival HR (95% CI) multivariate” value [5] was 0.37 (0.11, 1.23). The “Overall Survival HR (95% CI) univariate” value [5] was 0.37 (0.12, 1.16), the “Progression-free Survival HR (95% CI) multivariate” value [5] was 0.48 (0.20, 1.16) and the “Progression-free Survival HR (95% CI) univariate” value [5] was 0.42 (0.17, 1.03). The “Disease Control Rate PD” value [6] was 2 (67%), the “Disease Control Rate SD” value [6] was 1 (33%) and the “Overall Survival Median, months (95% CI)” value [7] was 8.7 (8.1, 15.6) months. For the same substance, the “Progression-free Survival Median, months (95% CI)” value [7] was 3.5 (2.5, 4.6) months, the “Overall Survival HR (95% CI) multivariate” value [8] was 0.08 (0.02, 0.41) and the “Overall Survival HR (95% CI) univariate” value [8] was 0.14 (0.04, 0.48). For the same substance, the “Progression-free Survival HR (95% CI) multivariate” value [8] was 0.28 (0.11, 0.55), the “Progression-free Survival HR (95% CI) univariate” value [8] was 0.26 (0.11, 0.59) and the “Disease Control Rate PD” value [9] was 9 (100%). The “Disease Control Rate SD” value [9] was 0, the “Overall Survival Median, months (95% CI)” value [9] was 3.4 (2.7, 6.5) months and the “Progression-free Survival Median, months (95% CI)” value [9] was 1.6 (0.9, 2.9) months. The PFS (training cohort, hENT1 rs760370 + OCT2 rs316019/MATE1 rs2289669 classification: Poor) was 1.6 months, the “HR for OS” value [10] was 0.27 and the “HR for PFS” value [10] was 0.44. The “Disease Control Rate PD” value [11] was 19 (83%), the “Disease Control Rate SD” value [11] was 4 (17%) and the OS [11] was 5.3 months. The “Overall Survival Median, months (95% CI)” value [11] was 5.3 (3.1, 12.4) months, the PFS [11] was 2.1 months and the “Progression-free Survival Median, months (95% CI)” value [11] was 2.1 (1.6, 2.9) months. The “Disease Control Rate PD” value [12] was 11 (55%), the “Disease Control Rate SD” value [12] was 9 (45%) and the “Overall Survival Median, months (95% CI)” value [13] was 8.7 (8.1, 15.6+) months. The “Progression-free Survival Median, months (95% CI)” value [13] was 3.5 (2.5, 4.6) months, the “Overall Survival HR (95% CI) multivariate” value [14] was 0.17 (0.05, 0.63) and the “Overall Survival HR (95% CI) univariate” value [14] was 0.27 (0.10, 0.70). The “Progression-free Survival HR (95% CI) multivariate” value [14] was 0.44 (0.22, 0.89), the “Progression-free Survival HR (95% CI) univariate” value [14] was 0.44 (0.23, 0.83) and the “Disease Control Rate PD” value [15] was 1 (33%). For the same substance, the “Disease Control Rate SD” value [15] was 2 (67%), the OS [16] was 8.7 months and the PFS [16] was 3.5 months. The “HR for OS” value [17] was 0.27, the “HR for PFS” value [17] was 0.44 and the “HR for PFS” value (training cohort, hENT1 rs9394992, multivariate adjusted for liver metastases and adjuvant history) was 0.44. For the same substance, the “Disease Control Rate PD” value [18] was 15 (83%), the “Disease Control Rate SD” value [18] was 3 (17%) and the OS [18] was 4.4 months. For the same substance, the “Overall Survival Median, months (95% CI)” value [18] was 4.4 (2.7, 7.2) months, the PFS [18] was 1.9 months and the “Progression-free Survival Median, months (95% CI)” value [18] was 1.9 (1.6, 2.7) months. For the same substance, the “Disease Control Rate PD” value [19] was 14 (64%), the “Disease Control Rate SD” value [19] was 8 (36%) and the “Overall Survival Median, months (95% CI)” value [20] was 8.7 (8.1, 15.6+) months. For the same substance, the “Progression-free Survival Median, months (95% CI)” value [20] was 3.4 (2.3, 4.4) months, the “Overall Survival HR (95% CI) multivariate” value [21] was 0.20 (0.08, 0.51) and the “Overall Survival HR (95% CI) univariate” value [21] was 0.21 (0.08, 0.51). The “Progression-free Survival HR (95% CI) multivariate” value [21] was 0.44 (0.23, 0.86), the “Progression-free Survival HR (95% CI) univariate” value [21] was 0.48 (0.25, 0.91) and the “Disease Control Rate PD” value [22] was 2 (33%). The “Disease Control Rate SD” value [22] was 4 (67%), the OS [23] was 8.7 months and the PFS [23] was 3.4 months. The “HR for OS” value [24] was 0.21, the “HR for PFS” value [24] was 0.48 and the “HR for OS” value [25] was 0.59. The “HR for PFS” value [25] was 0.68, the OS [26] was 6.3 months and the PFS [26] was 2.1 months. The OS [27] was 8.3 months, the PFS [27] was 3.4 months and the “Median OS” value [28] was 8.0 months. For the same substance, the “Median PFS” value [28] was 2.6 months.
